The results in this text go back to US8604044B2, “Quinazoline based EGFR inhibitors containing a zinc binding moiety” (Curis, Inc., priority 2006, dated 2013).

Series [1] concerns the target T1, HER2 (Homo sapiens, UniProt P04626).
T1 construct: human HER2 amino acids 679-1255; host or cells: baculovirus in Sf9 insect cells
In words: Radioisotope assay for HER2. It is filed as biochemical. To be noted: read-out: HER2/ErB2 IC50 grading. The protocol:
Protocol for Radioisotope Assay for HER2
10 nM HER2 and 0.1 mg/ml polyEY were placed in the reaction buffer and 2 mM MnCl2, 1 μM ATP and 1% DMSO final were added. The reaction mixture was incubated for 2 hours at room temperature.
MW=91.6 kDa. […] Enzyme is in 25 mM Tris-HCl, pH 8.0, 100 mM NaCl, 0.05% Tween-20, 50% glycerol, 10 mM reduced glutathione, and 3 mM DTT.

The test system of series [2] is HDAC. In words: HDAC fluorimetric assay (HDAC enzymatic activity, HeLa nuclear extract). The series is classed as biochemical. To be noted: for IC50: HeLa nuclear extract, read-out: HDAC IC50 grading. The method, then: HDAC inhibitors were screened using an HDAC fluorimetric assay kit (AK-500, Biomol, Plymouth Meeting, Pa.).
Each assay was setup as follows: Defrosted all kit components and kept on ice until use. […] Prepared dilutions of Trichostatin A (TSA, positive control) and tested compounds in assay buffer (5× of final concentration). Diluted Fluor de Lys™ Substrate in assay buffer to 100 uM (50 fold=2× final). Diluted Fluor de Lys™ developer concentrate 20-fold (e.g. 50 μl plus 950 μl Assay Buffer) in cold assay buffer. Second, diluted the 0.2 mM Trichostatin A 100-fold in the 1× Developer (e.g. 10 μl in 1 ml; final Trichostatin A concentration in the 1× Developer=2 μM; final concentration after addition to HDAC/Substrate reaction=1 μM). Added Assay buffer, diluted trichostatin A or test inhibitor to appropriate wells of the microtiter plate. Added diluted HeLa extract or other HDAC sample to all wells except for negative controls.

Series [3] deals with T2, human EGFR (Homo sapiens, UniProt P00533).
T2 construct: human EGFR (His672-Ala1210); purchased Cell Signaling Technologies; host or cells: baculovirus expression system
T2 sequence (P00533 672-1210): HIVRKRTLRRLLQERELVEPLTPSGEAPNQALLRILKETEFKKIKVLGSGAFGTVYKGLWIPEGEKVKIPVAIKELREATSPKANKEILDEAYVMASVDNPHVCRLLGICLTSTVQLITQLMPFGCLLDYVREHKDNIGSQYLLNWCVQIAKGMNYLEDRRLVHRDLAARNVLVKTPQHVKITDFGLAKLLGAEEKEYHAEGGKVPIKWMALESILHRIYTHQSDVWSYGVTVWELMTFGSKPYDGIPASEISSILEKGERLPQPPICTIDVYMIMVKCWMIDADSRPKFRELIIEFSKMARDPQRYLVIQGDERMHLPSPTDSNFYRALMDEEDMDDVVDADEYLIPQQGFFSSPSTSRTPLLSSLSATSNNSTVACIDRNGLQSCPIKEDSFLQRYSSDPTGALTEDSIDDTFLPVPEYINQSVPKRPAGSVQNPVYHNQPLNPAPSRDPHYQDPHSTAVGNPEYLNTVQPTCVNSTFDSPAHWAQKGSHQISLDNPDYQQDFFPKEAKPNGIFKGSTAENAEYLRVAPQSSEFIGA
In words: HTScan EGF Receptor Kinase Assay. It is filed as biochemical. To be noted: for IC50: read-out: EGFR IC50 grading. The protocol:
The ability of compounds to inhibit receptor kinase (EGFR) activity was assayed using HTScan™ EGF Receptor Kinase Assay Kits (Cell Signaling Technologies, Danvers, Mass.). […] The protein was purified by one-step affinity chromatography using glutathione-agarose.
Immediately transfer enzyme from −80° C. to ice. Allowed enzyme to thaw on ice. […] Returned immediately to ice. […] Incubated reaction plate at room temperature for 30 minutes. […] Added 100 μl/well primary antibody. Incubated at room temperature for 60 minutes. […] Added 100 μl/well diluted antibody. Incubated at room temperature for 30 minutes. […] Incubated at room temperature for 5 minutes.

Series [4] concerns A549 NSCLC Xenograft. In words: A549 NSCLC xenograft model. The series is classed as in vivo, mice. To be noted: FIG. 11B. The protocol: 1-10×10^6 human cancer cells were implanted subcutaneously to the athymic (nu/nu) mice. When the tumors reached about 100 mm^3 in volume, the mice were treated with the compound by tail vein infusion. Routinely 5 groups (8-12 mice per group) are needed for a typical efficacy study, including one negative control, one positive control, and three testing groups for 3 dose levels of the same compound. Usually a 7-7-5 (on-off-on) regimen was used for one typical study. The tumor size was measured with an electronic caliper and body weight measured with a scale twice weekly. The tumors were removed from euthanized mice at the end of the study. One half of each tumor was frozen in dry ice and stored at −80° C. for PK or Western blot analysis. The other half was fixed with formalin. The fixed tissues were processed, embedded in paraffin and sectioned for immunohistochemistry staining.

T1 sequence (P04626 679-1255): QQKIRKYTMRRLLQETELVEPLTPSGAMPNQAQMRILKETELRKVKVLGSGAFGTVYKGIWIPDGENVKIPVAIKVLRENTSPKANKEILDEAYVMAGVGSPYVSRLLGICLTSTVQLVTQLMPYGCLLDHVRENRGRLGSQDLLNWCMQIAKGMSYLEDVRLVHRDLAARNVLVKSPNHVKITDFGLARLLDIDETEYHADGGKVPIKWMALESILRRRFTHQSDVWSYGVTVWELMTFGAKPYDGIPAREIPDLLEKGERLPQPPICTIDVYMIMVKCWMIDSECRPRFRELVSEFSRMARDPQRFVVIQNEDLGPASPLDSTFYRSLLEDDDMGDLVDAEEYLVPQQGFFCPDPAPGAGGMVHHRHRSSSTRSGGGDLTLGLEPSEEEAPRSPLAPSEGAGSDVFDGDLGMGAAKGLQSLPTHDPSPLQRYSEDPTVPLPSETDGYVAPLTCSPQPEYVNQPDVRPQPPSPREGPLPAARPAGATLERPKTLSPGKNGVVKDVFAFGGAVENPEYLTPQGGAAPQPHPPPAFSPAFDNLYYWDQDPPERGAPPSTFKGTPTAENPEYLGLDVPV

`COc1cc2ncnc(Nc3ccc(OCc4cccc(F)c4)c(Cl)c3)c2cc1OCCCCCCC(=O)NO` [Compound 199, 7-(4-(3-chloro-4-(3-fluorobenzyloxy)phenylamino)-7-methoxyquinazolin-6-yloxy)-N-hydroxyheptanamide]: the IC50 in series [1], in series [2] and in series [3] was less than 100 nM each time.

As usually defined, the melting point is the temperature of the solid-liquid transition. For the compound `O=C(CCCCOc1ccc2ncnc(Nc3ccc(F)c(Cl)c3)c2c1)NO` [Compound 16, 5-(4-(3-chloro-4-fluorophenylamino)quinazolin-6-yloxy)-N-hydroxypentanamide], the melting point is 85.9 °C. In addition, the IC50 in series [2] lay within 100 to 1000 nM.

As for `C#Cc1cccc(Nc2ncnc3ccc(OCC(=O)NO)cc23)c1` [Compound 19, 2-(4-(3-ethynylphenylamino)quinazolin-6-yloxy)-N-hydroxyacetamide], the melting point is 189 to 191 °C. Further, the IC50 in series [2] was more than 10000 nM.

In the case of `COc1cc2ncnc(NCc3ccc(F)c(Cl)c3)c2cc1OCCCCCCC(=O)NO` [Compound 88, 7-(4-(3-chloro-4-fluorobenzylamino)-7-methoxyquinazolin-6-yloxy)-N-hydroxyheptanamide], the melting point was 143.1 °C (dec.). The IC50 in series [1] was in the range of 1000 to 10000 nM. Besides, the IC50 in series [2] was less than 100 nM.

With `C#Cc1cccc(Nc2ncnc3ccc(OCCCC(=O)NO)cc23)c1` [Compound 21, 4-(4-(3-ethynylphenylamino)quinazolin-6-yloxy)-N-hydroxybutanamide], the melting point was 182 to 186 °C. Moreover, the IC50 in series [2] was in the range of 1000 to 10000 nM.

For `C#Cc1cccc(Nc2ncnc3cc(OCCCCCCC(=O)NO)c(OCCOC)cc23)c1` [Compound 168, 7-(4-(3-ethynylphenylamino)-6-(2-methoxyethoxy)quinazolin-7-yloxy)-N-hydroxyheptanamide], the IC50 in series [1] was 100 to 1000 nM; in series [2] it was less than 100 nM; in series [3], less than 100 nM.

For the compound `C#Cc1cccc(Nc2ncnc3cc(OCCCCCCC(=O)NO)c(OC)cc23)c1` [Compound 162, 7-(4-(3-ethynylphenylamino)-6-methoxyquinazolin-7-yloxy)-N-hydroxyheptanamide], the values for the IC50 in series [1], in series [2] and in series [3] were 100 to 1000 nM, less than 100 nM and less than 100 nM, respectively.

For the compound `C#Cc1cccc(Nc2ncnc3ccc(OCCCCCC(=O)NO)cc23)c1` [Compound 23, 6-(4-(3-ethynylphenylamino)quinazolin-6-yloxy)-N-hydroxyhexanamide], the melting point lay within 176 to 182 °C. For the same compound, the IC50 in series [2] is less than 100 nM.

The compound `COc1cc2ncnc(N[C@H](C)c3ccc(F)cc3)c2cc1OCCCCCCC(=O)NO` [Compound 81, (R)-7-(4-(1-(4-fluorophenyl)ethylamino)-7-methoxyquinazolin-6-yloxy)-N-hydroxyheptanamide] registered a melting point of 118.2 to 144.3 °C. For the same compound, in series [2], the IC50 fell in the range of 100 to 1000 nM.

Take `O=C(CCCCCCCNCc1ccc(-c2ccc3ncnc(Nc4ccc(OCc5cccc(F)c5)c(Cl)c4)c3c2)o1)NO` [Compound 201]: the IC50 in series [1] is less than 100 nM; in series [2], 100 to 1000 nM; in series [3], less than 100 nM.

For the compound `C#Cc1cc(Nc2ncnc3cc(OC)c(OCCCCCCC(=O)NO)cc23)ccc1O` [Compound 206], the IC50 in series [1], in series [2] and in series [3] was less than 100 nM each time.

In the case of `COCCOc1cc2ncnc(Nc3ccc(OCc4cccc(F)c4)c(Cl)c3)c2cc1OCCCCCCC(=O)NO` [Compound 200], the IC50 in series [1], in series [2] and in series [3] was less than 100 nM each time.

Consider `C#Cc1cccc(Nc2ncnc3cc(OCCOC)c(OCCOC)cc23)c1` [Erlotinib], for which the “effect on tumor size as compared to control” value in series [4] is “did not significantly affect tumor size”.

On to `COc1cc2ncnc(Nc3ccc(F)c(Cl)c3)c2cc1OCCCCCCC(=O)NO` [Compound 6, 7-(4-(3-Chloro-4-fluorophenylamino)-7-methoxyquinazolin-6-yloxy)-N-hydroxyheptanamide], for which the IC50 in series [1] and in series [2] was less than 100 nM in each case. For the same compound, the “activity in HDAC enzyme assay compared with SAHA” value in series [2] (FIG. 1) was “more active”. Also, the “activity in EFGR enzyme assay compared with erlotinib” value in series [3] (FIG. 1) is on record as “more active”.

With `COc1cc2ncnc(Nc3ccc(F)c(Cl)c3)c2cc1SCCCCC(=O)NO` [Compound 151, 5-(4-(3-chloro-4-fluorophenylamino)-7-methoxyquinazolin-6-ylthio)-N-hydroxypentanamide], the IC50 in series [1] and in series [3] was less than 100 nM in each case.

For the compound `COc1cc2ncnc(Nc3ccc(F)c(Cl)c3)c2cc1SCCCCCCC(=O)NO` [Compound 155, 7-(4-(3-Chloro-4-fluorophenylamino)-7-methoxyquinazolin-6-ylthio)-N-hydroxyheptanamide], the IC50 in series [1] and in series [3] was less than 100 nM throughout.

`O=C(CCCCCCNCc1ccc(-c2ccc3ncnc(Nc4ccc(OCc5cccc(F)c5)c(Cl)c4)c3c2)o1)NO` [Compound 178, 7-((5-(4-(3-chloro-4-(3-fluorobenzyloxy)phenylamino)quinazolin-6-yl)furan-2-yl)methylamino)-N-hydroxyheptanamide] returned a melting point of 120 °C. The IC50 in series [2] was 100 to 1000 nM.

With `COCCOc1cc2c(Nc3ccc(F)c(Cl)c3)ncnc2cc1OCCCCCCC(=O)NO` [Compound 167, 7-(4-(3-chloro-4-fluorophenylamino)-6-(2-methoxyethoxy)quinazolin-7-yloxy)-N-hydroxyheptanamide], the figures for the IC50 in series [1], in series [2] and in series [3] were 100 to 1000 nM, less than 100 nM and less than 100 nM, respectively.

For the compound `C#Cc1cccc(Nc2ncnc3cc(O)c(OCCCCCCC(=O)NO)cc23)c1` [Compound 207], the IC50 in series [1] and in series [3] was less than 100 nM each time.

Consider `O=C(CCNCc1ccc(-c2ccc3ncnc(Nc4ccc(OCc5cccc(F)c5)c(Cl)c4)c3c2)o1)NO` [Compound 174, 3-((5-(4-(3-Chloro-4-(3-fluorobenzyloxy)phenylamino)quinazolin-6-yl)furan-2-yl)methylamino)-N-hydroxypropanamide], for which the melting point was 170 °C. The IC50 in series [2] is more than 10000 nM.

For `O=C(CCCCCCOc1ccc2ncnc(Nc3ccc(OCc4cccc(F)c4)c(Cl)c3)c2c1)NO` [Compound 198, 7-(4-(3-chloro-4-(3-fluorobenzyloxy)phenylamino)quinazolin-6-yloxy)-N-hydroxyheptanamide], the IC50 in series [1], in series [2] and in series [3] was less than 100 nM in each case.

Consider `COc1cc2ncnc(Nc3ccc(F)c(Cl)c3)c2cc1OCCCCCCN(O)C(N)=O` [Compound 102], for which the IC50 in series [3] is less than 100 nM.

As to `O=C(CCCCCNCc1ccc(-c2ccc3ncnc(Nc4ccc(OCc5cccc(F)c5)c(Cl)c4)c3c2)o1)NO` [Compound 177, 6-((5-(4-(3-chloro-4-(3-fluorobenzyloxy)phenylamino)quinazolin-6-yl)furan-2-yl)methylamino)-N-hydroxyhexanamide], the melting point amounted to 121 °C. In series [1], the IC50 is less than 100 nM. In addition, the IC50 in series [2] lay in the range of 100 to 1000 nM. In series [3], the IC50 was less than 100 nM.

In the case of `O=C(CCCOc1ccc2ncnc(Nc3ccc(F)c(Cl)c3)c2c1)NO` [Compound 15, 4-(4-(3-chloro-4-fluorophenylamino)quinazolin-6-yloxy)-N-Hydroxybutanamide], the melting point was in the range of 128 to 132 °C. Moreover, the IC50 in series [2] is less than 100 nM.
